Laboratory results published in US9408387B2, “Safening 6-amino-2-(substituted phenyl)-5-substituted-4-pyrimidinecarboxylate herbicide injury on cereal crops” (Dow AgroSciences LLC, priority 2009, dated 2016).

Legend:
Assay type in all cases: in vivo
[1] = tested on: spring barley (Hordeum vulgare L; HORVS); experiment: Postemergence herbicidal safening in cereal crops, greenhouse, visual injury: spring barley; conditions: Hordeum vulgare, post-emergence, 480 h, 20-22 d, read-out: HORVS Ob (visual injury); for pest or weed control at 8.75 g/ha: herbicide alone 8.75 g/ha; for pest or weed control at 35 g/ha: herbicide alone 35 g ae/ha; for pest or weed control at 70 g/ha: herbicide alone 70 g/ha; for pest or weed control at 140 g/ha: herbicide alone 140 g/ha
Experimental: (§1) Evaluation of Postemergence Herbicidal Safening in Cereal Crops
(§2) Seeds of the desired test plant species were planted in Sun Gro MetroMix® 306 planting mixture, which typically has a pH of 6.0 to 6.8 and an organic matter content of about 30 percent, in plastic pots with a surface area of 103.2 square centimeters (cm^2). When required to ensure good germination and healthy plants, a fungicide treatment and/or other chemical or physical treatment was applied. The plants were grown for 7-36 days (d) in a greenhouse with an approximate 14-hour (h) photoperiod which was maintained at about 18° C. during the day and 17° C. during the night. Nutrients and water were added on a regular basis and supplemental lighting was provided with overhead metal halide 1000-Watt lamps as necessary. The plants were employed for testing when they reached the second or third true leaf stage.
(§3) Treatments consisted of the acids or esters of compounds 1-10 and cloquintocet-mexyl (CQC-M), fenchlorazole-ethyl, mefenpyr-diethyl alone and in combination. Weighed amounts of acid or methyl esters of the compounds of formula (I) were dissolved in a volume of 97:3 v/v acetone/dimethylsulfoxide (DMSO) to obtain concentrated solutions. […] The concentrated solutions of the test compound were diluted with the addition of an aqueous mixture containing acetone, water, isopropyl alcohol, DMSO, Agri-Dex crop oil concentrate, and Triton® X-77 surfactant in a 64.7:26.0:6.7:2.0:0.7:0.01 v/v ratio. Test compounds were diluted to the appropriate application rate with a dilution solution which was prepared by mixing the appropriate volume of 97:3 v/v acetone/DMSO and the appropriate volume of an aqueous mixture containing acetone, water, isopropyl alcohol, DMSO, Agri-Dex crop oil concentrate, and Triton® X-77 surfactant in a 64.7:26.0:6.7:2.0:0.7:0.01 v/v ratio. Compound requirements are based upon a 12 mL application volume at a rate of 187 liters per hectare (L/ha). The concentrated solutions of the safener were prepared following the same procedure. Weighed amounts of safener were dissolved in a volume of 97:3 v/v acetone/DMSO to obtain concentrated safener solutions.
(§4) Spray solutions of the herbicide safener and test compound mixtures were prepared by adding the concentrated solutions to the appropriate amount of dilution solution to form 12 mL spray solution with active ingredients in combinations.
(§5) Formulated compounds were applied to the plant material with an overhead Mandel track sprayer equipped with 8002E nozzles calibrated to deliver 187 L/ha over an application area of 0.503 square meters (m^2) at a spray height of 18 inches (43 centimeters (cm)) above average plant canopy. Control plants were sprayed in the same manner with the solvent blank.
(§6) The treated plants and control plants were placed in a greenhouse as described above and watered by sub-irrigation to prevent wash-off of the test compounds. After 20-22 d, the condition of the test plants as compared with that of the control plants was determined visually and scored on a scale of 0 to 100 percent where 0 corresponds to no injury and 100 corresponds to complete kill.
(§7) Colby's equation was used to determine the herbicidal effects expected from the mixtures (Colby, S. R. Calculation of the synergistic and antagonistic response of herbicide combinations. Weeds 1967, 15, 20-22.).
(§8) The following equation was used to calculate the expected activity of mixtures containing two active ingredients, A and B: Expected=A+B−(A×B/100)
(§9) A=observed efficacy of active ingredient A at the same concentration as used in the mixture.
(§10) B=observed efficacy of active ingredient B at the same concentration as used in the mixture.

[2] = tested on: purple deadnettle (Lamium purpureum L; LAMPU); experiment: Postemergence herbicidal activity, greenhouse, visual injury: purple deadnettle; conditions: Lamium purpureum, post-emergence, 480 h, 20-22 d, read-out: LAMPU Ob (visual injury); for pest or weed control at 35 g/ha: herbicide alone 35 g ae/ha; for pest or weed control at 70 g/ha: herbicide alone 70 g/ha; for pest or weed control at 140 g/ha: herbicide alone 140 g/ha
Experimental: as §1, §2, §3, §4, §5, §6, §7, §8, §9, §10

[3] = tested on: durum wheat (Triticum durum L; TRZDU); experiment: Postemergence herbicidal safening in cereal crops, greenhouse, visual injury: durum wheat; conditions: herbicide alone 8.75 g/ha; 20-22 d
Experimental: as §1, §2, §3, §4, §5, §6, §7, §8, §9, §10

[4] = tested on: spring wheat (Triticum aestivum L; TRZAS); experiment: Postemergence herbicidal safening in cereal crops, greenhouse, visual injury: spring wheat; conditions: Triticum aestivum, post-emergence, 480 h, 20-22 d, read-out: TRZAS Ob (visual injury); for pest or weed control at 8.75 g/ha: herbicide alone 8.75 g/ha; for pest or weed control at 35 g/ha: herbicide alone 35 g ae/ha; for pest or weed control at 70 g/ha: herbicide alone 70 g/ha; for pest or weed control at 140 g/ha: herbicide alone 140 g/ha
Experimental: as §1, §2, §3, §4, §5, §6, §7, §8, §9, §10

[5] = tested on: winter barley (Hordeum vulgare L; HORVW); experiment: Postemergence herbicidal safening in cereal crops, greenhouse, visual injury: winter barley; conditions: herbicide alone 8.75 g/ha; 20-22 d
Experimental: as §1, §2, §3, §4, §5, §6, §7, §8, §9, §10

[6] = tested on: winter wheat (Triticum aestivum L; TRZAW); experiment: Postemergence herbicidal safening in cereal crops, greenhouse, visual injury: winter wheat; conditions: herbicide alone 8.75 g/ha; 20-22 d
Experimental: as §1, §2, §3, §4, §5, §6, §7, §8, §9, §10

[7] = tested on: corn poppy (Papaver rhoeas L; PAPRH); experiment: Postemergence herbicidal activity, greenhouse, visual injury: corn poppy; conditions: 20-22 d
Experimental: as §1, §2, §3, §4, §5, §6, §7, §8, §9, §10

CIRAR = experiment: Postemergence herbicidal activity, greenhouse, visual injury: CIRAR; conditions: 20-22 d
Experimental: as §1, §2, §3, §4, §5, §6, §7, §8, §9, §10

[8] = tested on: kochia (Kochia scoparia L; KCHSC); experiment: Postemergence herbicidal activity, greenhouse, visual injury: kochia; conditions: 20-22 d
Experimental: as §1, §2, §3, §4, §5, §6, §7, §8, §9, §10

MATCH = experiment: Postemergence herbicidal activity, greenhouse, visual injury: MATCH; conditions: 20-22 d
Experimental: as §1, §2, §3, §4, §5, §6, §7, §8, §9, §10

[9] = tested on: bird's-eye speedwell (Veronica persica L; VERPE); experiment: Postemergence herbicidal activity, greenhouse, visual injury: bird's-eye speedwell; conditions: herbicide alone 8.75 g/ha; 20-22 d
Experimental: as §1, §2, §3, §4, §5, §6, §7, §8, §9, §10

SASKR = experiment: Postemergence herbicidal activity, greenhouse, visual injury: SASKR; conditions: 20-22 d
Experimental: as §1, §2, §3, §4, §5, §6, §7, §8, §9, §10

Row | Structure (SMILES) | pest or weed control at 8.75 g/ha [1] [%] | pest or weed control at 35 g/ha [1] [%] | pest or weed control at 35 g/ha [2] [%] | TRZDU Ob (visual injury) [3] [%] | pest or weed control at 8.75 g/ha [4] [%] | pest or weed control at 35 g/ha [4] [%] | HORVW Ob (visual injury) [5] [%] | TRZAW Ob (visual injury) [6] [%] | pest or weed control at 70 g/ha [1] [%] | pest or weed control at 140 g/ha [1] [%] | pest or weed control at 70 g/ha [2] [%] | pest or weed control at 140 g/ha [2] [%] | pest or weed control at 70 g/ha [4] [%] | pest or weed control at 140 g/ha [4] [%] | PAPRH Ob (visual injury) ([7]; herbicide alone 70 g/ha) [%] | PAPRH Ob (visual injury) ([7]; herbicide alone 140 g/ha) [%] | CIRAR Ob (visual injury) (CIRAR; herbicide alone 70 g/ha) [%] | CIRAR Ob (visual injury) (CIRAR; herbicide alone 140 g/ha) [%] | KCHSC Ob (visual injury) ([8]; herbicide alone 70 g/ha) [%] | KCHSC Ob (visual injury) ([8]; herbicide alone 140 g/ha) [%] | also measured
1 | COC(=O)c1nc(-c2ccc(Cl)c(OC)c2F)nc(N)c1OC [Compound 4, 6-amino-2-(4-chloro-2-fluoro-3-methoxyphenyl)-5-methoxypyrimidine-4-carboxylic acid methyl ester] | 25 | 75 | 100 | 18 | 33 | 80 | 7 | 22 |  |  |  |  |  |  |  |  |  |  |  |  | 
2 | C=Cc1c(N)nc(-c2ccc(Cl)c(OC)c2F)nc1C(=O)OC [Compound 5, 6-amino-2-(4-chloro-2-fluoro-3-methoxyphenyl)-5-vinylpyrimidine-4-carboxylic acid methyl ester] |  | 10 | 75 |  |  | 25 |  |  | 8 | 0 | 95 | 95 | 18 | 40 | 89 | 90 | 84 | 85 |  |  | 
3 | COc1c(N)nc(-c2ccc(Cl)c(F)c2)nc1C(=O)O [Compound 9, 6-amino-2-(4-chloro-3-fluorophenyl)-5-methoxypyrimidine-4-carboxylic acid] |  |  |  |  |  |  |  |  | 50 | 70 | 95 | 100 | 60 | 70 |  |  |  |  | 100 | 100 | MATCH Ob (visual injury) (MATCH; herbicide alone 70 g/ha): 93%; MATCH Ob (visual injury) (MATCH; herbicide alone 140 g/ha): 97%
4 | C=Cc1c(N)nc(-c2ccc(Cl)c(OC)c2F)nc1C(=O)O [Compound 2, 6-amino-2-(4-chloro-2-fluoro-3-methoxyphenyl)-5-vinylpyrimidine-4-carboxylic acid] | 24 | 68 | 77 | 30 | 41 | 80 | 18 | 43 |  |  |  |  |  |  |  |  |  |  |  |  | PAPRH Ob (visual injury) ([7]; herbicide alone 8.75 g/ha): 80%; KCHSC Ob (visual injury) ([8]; herbicide alone 8.75 g/ha): 40%; VERPE Ob (visual injury) [9]: 70%
5 | C=Cc1c(N)nc(-c2ccc(Cl)c(N(C)C)c2F)nc1C(=O)O [Compound 7, 6-amino-2-(4-chloro-3-dimethylamino-2-fluorophenyl)-5-vinylpyrimidine-4-carboxylic acid] |  | 70 | 52 |  |  | 75 |  |  | 30 | 45 |  |  | 60 | 70 |  |  | 80 | 85 | 65 | 75 | SASKR Ob (visual injury) (SASKR; herbicide alone 70 g/ha): 75%; SASKR Ob (visual injury) (SASKR; herbicide alone 140 g/ha): 80%
6 | COc1c(N)nc(-c2ccc(Cl)c(OC)c2F)nc1C(=O)O [Compound 8, 6-amino-2-(4-chloro-2-fluoro-3-methoxyphenyl)-5-methoxypyrimidine-4-carboxylic acid] |  | 75 | 100 |  |  | 83 |  |  | 50 | 85 | 100 | 100 | 90 | 95 | 100 | 100 |  |  | 90 | 100 | 
